For orientation: EC50 means the concentration giving half of the maximal effect.

The text below walks through data of PMC9810167, “Novel dual LSD1/HDAC6 inhibitor for the treatment of cancer” (PLOS ONE, 2023).

One data set has as its system HEL 92.1.7. Kind of data set: Cell proliferation assay (Alamar Blue). Type of data set: cell-based, human. As to conditions: for EC50: Homo sapiens. Here is the method:
Cells were seeded in NUNC 96-well tissue culture plates (Life Technologies) in […] culture medium and incubated at 37°C/ 5% CO2 to adhere to plastic for 18–24 h. […] One set of plates (designated for the 144 h read out) were centrifuged at low speed for 30 seconds, and respective compounds were replenished in fresh media and incubated for another 68–72 h at 37°C/ 5% CO2. […] The inhibition curve was then fitted by plotting % inhibition against log concentration in GraphPad Prism 5.0 (GraphPad Software, Inc.) and the GI50 value of compound was determined. Data are representative of at least two independent experiments.
A general note: Resazurin is reduced to fluorescent resorufin, in cell work by metabolically active cells.

For the next data set, the system named is class I HDACs. Details: method as in PMID 22262760. The note with it: read-out: potency on class I HDACs; cited from earlier work.
A further data set deals with MM1.S xenograft. Kind of data set: MM1.S multiple myeloma xenograft model. Type of data set: in vivo.

Like-named read-outs stand apart in the source and are kept apart here.

For `N[C@H]1CC[C@H](N[C@@H]2C[C@H]2c2ccccc2)CC1` [Iadademstat], the “anti-proliferative EC50, 72 h” value in the data set on HEL 92.1.7 (HEL92.1.7, 3 days (72 h) of incubation) is “did not show any measurable anti-proliferative activity”. Moreover, the “cell growth inhibition reached (plateau)” value in the data set on HEL 92.1.7 (HEL92.1.7, 6 days of incubation, up to 10 μM) is on record as 50–60%. With `O=C(CCCCCCNC(=O)c1cnc(N(c2ccccc2)c2ccccc2)nc1)NO` [Ricolinostat], the IC50 in the data set on class I HDACs was about 0.05 µM. The EC50 in the data set on HEL 92.1.7 (HEL 92.1.7, read-out: anti-proliferative EC50, HEL92.1.7, 3 days (72 h) of incubation) amounted to 4.4 µM; in the data set on HEL 92.1.7 (HEL 92.1.7, Leukemia, 144 h, read-out: EC50, 144hr) it was 3.7 µM. For the molecule `Nc1cccc2c1C(=O)N(C1CCC(=O)NC1=O)C2=O` (stereo not shown) [Pomalidomide, reference compound], in the data set with MM1.S xenograft (single agents (Bortezomib 0.5 mg/kg IP BIW; Pomalidomide 2.5 mg/kg PO 5x/week)), the tolerability entry is reported as “well tolerated”. Take `CC(C)C[C@H](NC(=O)[C@H](Cc1ccccc1)NC(=O)c1cnccn1)B(O)O` [Bortezomib, reference compound]: in the data set with MM1.S xenograft (Bortezomib 0.5 mg/kg IP BIW, mice dead/group), the mortality is given as 1/7.
